# Experimental data: ChEMBL document CHEMBL5352391, “New structural classes of antimalarials” (Eur J Med Chem, 2022)
# Tests used:
# Plasmodium falciparum [1] = test: Antiplasmodial activity against chloroquine sensitive Plasmodium falciparum 3D7 assessed as inhibition of parasite growth incubated for 48 hrs by Malstat reagent based spectrophotometric; type: functional, organism-based; conditions: 3D7, 48 h
# Plasmodium falciparum [2] = test: Antimalarial activity against Plasmodium falciparum 3D7 assessed as reduction of parasite growth at 25 uM incubated for 96 hrs by SYBR green I dye based fluorescence assay relative to control; type: functional; parameters: scale not given: the % may be the effect or the level left
# Plasmodium falciparum [3] = test: Antiplasmodial activity against chloroquine resistant Plasmodium falciparum K14 assessed as inhibition of parasite growth incubated for 42 hrs by [3H]-hypoxanthine incorporation based microbeta scintillation counting method; type: functional, organism-based
# Plasmodium falciparum [4] = test: Antimalarial activity against Plasmodium falciparum 3D7 assessed as inhibition of parasite growth by measuring minimum inhibitory concentration by microassay; type: functional
# Plasmodium falciparum [5] = test: Antimalarial activity against chloroquine resistant Plasmodium falciparum assessed as inhibition of parasite growth; type: functional, organism-based
# Plasmodium falciparum [6] = test: Antiplasmodial activity against chloroquine resistant Plasmodium falciparum K14 assessed as inhibition of parasite growth incubated for 48 hrs by [3H]-hypoxanthine incorporation based microbeta scintillation counting method; type: functional, organism-based
# Plasmodium falciparum [7] = test: Antiplasmodial activity against Plasmodium falciparum 3D7 assessed as inhibition of parasite growth incubated for 72 hrs by LDH assay based spectrofluorometric analysis; type: functional, organism-based; conditions: 3D7, 72 h
# [8] = Selectivity index, ratio of CC50 for cytotoxicity against human HepG2 cells by MTT assay to EC50 for antiplasmodial activity against erythrocytic stage of Plasmodium falciparum 3D7 by SYBR Green dye based fluorescence assay; type: toxicity, cell-based; conditions: read-out: Ratio CC50/EC50
# Plasmodium falciparum [9] = test: Antiplasmodial activity against erythrocytic stage of Plasmodium falciparum K1 assessed as reduction of parasite growth incubated for 48 hrs by [3H]-hypoxanthine incorporation based beta-plate liquid scintillation counting method; type: functional, organism-based
# [10] = Cytotoxicity against human HepG2 cells assessed as reduction in cell viability incubated for 72 hrs by MTT assay; type: toxicity, cell-based
# Plasmodium falciparum [11] = test: Antiplasmodial activity against erythrocytic stage of Plasmodium falciparum NF54 assessed as reduction of parasite growth incubated for 48 hrs by [3H]-hypoxanthine incorporation based beta-plate liquid scintillation counting method; type: functional, organism-based
# [12] = Selectivity index, ratio of CC50 for cytotoxicity against human HepG2 cells by MTT assay to EC50 for antiplasmodial activity against erythrocytic stage of Plasmodium falciparum K1 by [3H]-hypoxanthine incorporation based liquid scintillation counting method; type: toxicity, cell-based; conditions: read-out: Ratio CC50/EC50
# Plasmodium falciparum [13] = test: Antiplasmodial activity against erythrocytic stage of Plasmodium falciparum 3D7 assessed as reduction of parasite growth incubated for 100 hrs by SYBR Green dye based fluorescence assay; type: functional, organism-based; conditions: 3D7, 100 h
# [14] = Selectivity index, ratio of CC50 for cytotoxicity against human HepG2 cells by MTT assay to EC50 for antiplasmodial activity against erythrocytic stage of Plasmodium falciparum NF54 by [3H]-hypoxanthine incorporation based liquid scintillation counting method; type: toxicity, cell-based; conditions: read-out: Ratio CC50/EC50
# Plasmodium falciparum [15] = test: Antiplasmodial activity against chloroquine resistant Plasmodium falciparum RKL-2 assessed as inhibition of parasite growth incubated for 36 to 40 hrs by Giemsa staining based microscopic analysis; type: functional, organism-based
# Plasmodium falciparum [16] = test: Antimalarial activity against Plasmodium falciparum 3D7 assessed as reduction of parasite growth incubated for 96 hrs by SYBR green I dye based fluorescence assay; type: functional, organism-based; conditions: 3D7, 96 h
# Plasmodium falciparum [17] = test: Antiplasmodial activity against chloroquine resistant Plasmodium falciparum Dd2 assessed as inhibition of parasite growth incubated for 72 hrs by LDH assay based spectrofluorometric analysis; type: functional, organism-based; conditions: Dd2, 72 h
# Plasmodium falciparum [18] = test: Antiplasmodial activity against Plasmodium falciparum K1 infected in human erythrocyte assessed as inhibition of parasite growth incubated for 72 hrs by [3H]-hypoxanthine incorporation based liquid scintillation counting method; type: functional, organism-based
# [19] = Retention time of the compound by HPLC-MS analysis; type: physicochemical
# Plasmodium falciparum [20] = test: Antiplasmodial activity against mixture of chloroquine resistant Plasmodium falciparum RKL 303-chloroquine sensitive Plasmodium falciparum 3D7 infected in human erythrocyte assessed as inhibition of parasite growth incubated for 48 hrs by Giemsa staining based microscopic analysis; type: functional, organism-based
smiles,measurement,setting,value
CC(=O)Nc1cc(-c2ccc(F)cc2)cc2c(C(=O)C(F)(F)F)c(-c3ccc(F)cc3)[nH]c12,IC50,Plasmodium falciparum [1],2.52 µM
COC(=O)[C@H](Cc1ccc(O)c(-c2ccc(Cl)cc2)c1)NC(=O)C(=O)c1c[nH]c2ccccc12,Activity,Plasmodium falciparum [2],60%
Oc1c(/C=N/c2ccccc2/N=C/c2cccc(CN3CCOCC3)c2O)cccc1CN1CCNCC1,IC50,Plasmodium falciparum [3],2.28 µM
COC(=O)[C@H](Cc1ccc(O)c(-c2ccccc2)c1)NC(=O)C(=O)c1c[nH]c2ccccc12,Activity,Plasmodium falciparum [2],60%
COC(=O)[C@H](Cc1ccc(O)c(-c2ccsc2)c1)NC(=O)C(=O)c1c[nH]c2ccccc12,Activity,Plasmodium falciparum [2],60%
Cc1ccc(C2=C/C(=C/c3cc4cc(C)ccc4nc3Cl)C(=O)O2)c(C)c1,MIC,Plasmodium falciparum [4],10 mg/L
Nc1cc(Cl)c(S(N)(=O)=O)cc1-c1nnc(S)n1-c1ccccc1Cl,IC50,Plasmodium falciparum [5],0.025 mg/L
COC(=O)[C@H](Cc1ccc(O)c(-c2cccc(O)c2)c1)NC(=O)C(=O)c1c[nH]c2ccccc12,Activity,Plasmodium falciparum [2],60%
COC(=O)[C@H](Cc1ccc(O)c(-c2ccc(C(C)=O)cc2)c1)NC(=O)C(=O)c1c[nH]c2ccccc12,Activity,Plasmodium falciparum [2],60%
O=C(Nc1ccc([C@@H]2[C@H](Oc3ccc(Cl)cc3Cl)C(=O)N2c2ccc(Cl)cc2)cc1)N1CCOCC1,IC50,Plasmodium falciparum [6],26 µM
C/C1=C\[C@H](C)CCC(=O)/C(C)=C/[C@H](C)C[C@@H](C)CC[C@@H]([C@@H](C)C(=O)O)OC(=O)[C@@H](C)C1,IC50,Plasmodium falciparum [7],9.81 µM
CC1(C)C2CC=C(CC(=O)Nc3ccnc4cc(Cl)ccc34)[C@@H]1C2,selectivity ratio,[8],0.8
same,EC50,Plasmodium falciparum [9],7.84 µM
same,CC50 at 72 h,[10],14.3 µM
same,EC50,Plasmodium falciparum [11],21.4 µM
same,selectivity ratio,[12],1.8
same,EC50,Plasmodium falciparum [13],17.1 µM
same,selectivity ratio,[14],0.7
CCN(Cc1cc(C2(C)OOC(c3ccccn3)OO2)ccc1O)c1ccccc1 (stereo unspecified),IC50,Plasmodium falciparum [15],5.3 mg/L
CC1(C)C2CC=C(CC(=O)Nc3ccnc4ccccc34)[C@@H]1C2,selectivity ratio,[8],0.2
same,EC50,Plasmodium falciparum [9],13.9 µM
same,CC50 at 72 h,[10],3.98 µM
same,EC50,Plasmodium falciparum [11],23.4 µM
same,selectivity ratio,[12],0.3
same,EC50,Plasmodium falciparum [13],26.4 µM
same,selectivity ratio,[14],0.2
COC(=O)[C@H](Cc1ccc(O)c(C(=O)OCc2ccc(Nc3ccccc3)cc2)c1)NC(=O)C(=O)c1c[nH]c2ccccc12,Activity,Plasmodium falciparum [2],60%
Oc1c(/C=N/c2ccc(Oc3ccc(/N=C/c4cccc(CN5CCOCC5)c4O)cc3)cc2)cccc1CN1CCOCC1,IC50,Plasmodium falciparum [3],2.28 µM
COC(=O)[C@H](Cc1ccc(O)c(-c2ccc(Br)cc2)c1)NC(=O)C(=O)c1c[nH]c2ccccc12,EC50,Plasmodium falciparum [16],3.7 µM
same,Activity,Plasmodium falciparum [2],60%
CCN(Cc1cc(C2(C)OOC(c3ccco3)OO2)ccc1O)c1ccccc1 (stereo unspecified),IC50,Plasmodium falciparum [15],5.3 mg/L
CC(=O)Nc1cc(-c2ccc(F)cc2)cc2cc(-c3ccc(F)cc3)[nH]c12,IC50,Plasmodium falciparum [1],1.43 µM
C/C1=C\[C@H](C)CC[C@@H](O)/C(C)=C/[C@H](C)C[C@@H](C)CC[C@@H]([C@@H](C)C(=O)O)OC(=O)[C@@H](C)C1,IC50,Plasmodium falciparum [7],0.013 µM
same,IC50,Plasmodium falciparum [17],0.032 µM
COc1ccc(-c2[nH]c3c(NC(C)=O)cc(/C=C/c4ccc(F)cc4)cc3c2C(=O)C(F)(F)F)cc1,IC50,Plasmodium falciparum [1],3.39 µM
COc1ccc2nc(Cl)c(/C=C3/C=C(c4ccc(C)cc4C)OC3=O)cc2c1,MIC,Plasmodium falciparum [4],10 mg/L
C/C1=C\[C@H](C)C(=O)C[C@@H](O)/C(C)=C/[C@H](C)C[C@@H](C)CC[C@@H]([C@@H](C)C(=O)O)OC(=O)[C@@H](C)C1,IC50,Plasmodium falciparum [7],0.123 µM
CC1(C)C2CC=C(CC(=O)Nc3cccc4cccnc34)[C@@H]1C2,selectivity ratio,[8],> 62.3
same,EC50,Plasmodium falciparum [9],> 50 µM
same,CC50 at 72 h,[10],> 100 µM
same,EC50,Plasmodium falciparum [11],> 50 µM
same,EC50,Plasmodium falciparum [13],2.19 µM
C[C@H](C[C@H](O)[C@@H](O)C(C)(C)O)C1=C2C[C@H](O)[C@H]3[C@@]4(C)CCC(=O)C(C)(C)[C@@H]4CC[C@]3(C)[C@@]2(C)CC1 [ALISOL A],IC50,Plasmodium falciparum [18],13.8 µM
same,Retention_time,[19],23 min
C=CC(C)(C)c1cc(/C=C/C(=O)c2ccc(O)cc2)c(OC)cc1O [LICOAGROCHACONE A],IC50,Plasmodium falciparum [20],1.43 mg/L
C=C[C@H]1CN2CC[C@H]1C[C@H]2[C@H](O)c1ccnc2ccc(OC)cc12 [QUININE],IC50,Plasmodium falciparum [5],0.026 mg/L
